Entries after “also recorded” stand apart in the source; their conditions may differ.
What was measured:
[1] = literature values; cited from earlier work
LoVo-OXP cells = assay: Cellular platinum uptake by GF-AAS; assay type: cell-based, human; settings: LoVo-OXP resistant cells, 5 μM, 6, 24, 48 h, FIG. 2 panel B, compared with LoVo
Procedure: LoVo and LoVo-OXP cells (2×10^6) were seeded in 75 cm^2 flasks in growth medium (20 ml). After 24 h, the medium was replaced and the cells incubated for different times (6, 24 or 48 h) in the presence of the tested complexes. Cell monolayers were washed twice with cold PBS and harvested. Samples were subjected to three freezing/thawing cycles at −80° C., and then vigorously vortexed. Aliquots were removed for the determination of protein content by the BioRad protein assay (BioRad). The samples were treated with 1 mL of highly pure nitric acid (Pt: ≦0.01 μg×kg^−1, TraceSELECT® Ultra, Sigma Chemical Co.) and transferred into a microwave teflon vessel. Subsequently, samples were submitted to a standard procedure using a speed wave MWS-3 Berghof instrument (Eningen, Germany). After cooling, each mineralized sample was analyzed for platinum by using a Varian AA Duo graphite furnace atomic absorption spectrometer (Varian, Palo Alto, Calif.; USA) at the wavelength of […]. The calibration curve was obtained using known concentrations of standard solutions purchased from Sigma Chemical Co.
It is well-known that cellular uptake is an important factor influencing drug efficacy. […] The intracellular platinum was quantified by means of GF-AAS analysis and the results, expressed as μg metal mg^−1 of cellular proteins, are summarized in FIG. 2.

In the case of `[Cl][Pt]1([Cl])[NH][C@@H]2CCCC[C@H]2[NH]1` [Compound 2, [SP-4-2]-dichloro[(1R,2R)-1,2-cyclohexanediamine-N^1,N^2]platinum], the “log Po/w” value [1] is given as −1.40 and the intracellular platinum accumulation (LoVo-OXP cells) is given as “remarkably decreased; also recorded: decreases remarkably”.
